Laboratory results reported in patent publication US20240423980A1, “METHODS OF PREVENTING A VENOUS THROMBOEMBOLIC EVENT” (Board of Supervisors of Louisiana State University and …, priority 2023, published 2024).

How the values were obtained:
[1] = system: patients with mild-to-moderate COPD; conditions: cited from earlier work
[2] = target: T1, ITGA9-VCAM1 binding (Homo sapiens, UniProt Q13797); assay: ITGA9 binding assay (ITGA9-VCAM1 binding, cell-free)
T1 construct: purchased R&D Systems
Procedure: Turning next to FIG. 2, another aspect of the invention is shown as a ITGA9 binding assay. Briefly, purified human VCAM1 (R&D Systems) diluted to 5 μg/ml in TBS+ buffer (25 mM Tris pH 7.4, 137 mM NaCl, 2.7 mM KCl, 1 mM CaCl2, 1 Mm MgCl2, 1 mM MnC12) was added to wells of a 96-well transparent microtiter plate and incubated overnight at 4° C. Wells were washed 3 times with buffer and blocking buffer (TBS+ with 1% bovine serum albumin) was added followed by incubation for 1 hour at 37° C., and then washing. Recombinant human integrin ITGA9 (R&D Systems) was diluted to 1 μg/ml in TBS+/0.1% bovine serum albumin. Macitentan was diluted into the integrin solution and added to the washed ligand-coated plate according to a standard template with each sample repeated in triplicate. After incubation for 2 hours at room temperature, the plate was washed 3 times with 150 μl TBS+ buffer. To each well, biotinylated anti-β1 (catalog BAF1778, R&D Systems) at 1 μg/ml in TBS+/0.1% BSA was added, and the plate covered and incubated for 1 hour at RT. After washing the plate 3 times with TBS+ buffer, streptavidin conjugated horseradish peroxidase (R&D Systems) diluted in TBS+ blocking buffer was added to the wells and the plate incubated for 20 minutes at room temperature. […] After incubation for 20 minutes at RT, plates were read by colorimetric detection at 450 nm wavelength. […]

[3] = system: wild-type mice; assay: In vivo venous thrombosis using IVC stenosis (DVT surgery); parameters: species or system mouse; conditions: 10 mg/kg; measured at 24-hr; vs vehicle; FIG. 3
Procedure: Next, we performed in vivo venous thrombosis using IVC stenosis (DVT surgery) in 30 wild-type mice and randomized them into control (vehicle, n=15) and treatment (Macitentan, 10 mg/kg, n=15) groups. The thrombus weight and incidence were measured at 24-hr.

[4] = system: mice with lung cancer; assay: IVC stenosis DVT in mice with lung cancer (LLC1 cells); type: in vivo, mouse; conditions: thrombus harvested 48-hour post-stenosis, FIG. 23
Procedure: Lewis lung carcinoma (LLC1) cell line will be obtained from American Type Culture Collection (ATCC). The cell line was originally derived from a Lewis lung carcinoma of a C57BL mouse strain. The cells will be grown in Dulbecco's Modified Eagle Medium (DMEM) supplemented with 10% FCS, 2 mM L-glutamine, 100 U/ml penicillin, 100 μg/ml streptomycin, and 0.1% fungizone. The cells will be maintained at 37° C. in a humidified atmosphere with 5% CO2. The LLC1 cells (100 μL) will be injected once intravenously.
Macitentan at the dose of 2, 5 and 10 mg/kg will be administered orally once a day from the day of cancer induction until the end of the study.
Deep vein thrombosis (DVT) will be induced in mice after 14 days of tumor induction. Briefly, anesthetized mice will undergo laparotomy, the intestine will be exteriorized, and the intra renal IVC will be exposed. The IVC will then be dissected away from the aorta. For stenosis, IVC will be exposed, a space holder (30-gauge, 3-mm long needle) will be positioned on the outside of the vessel, and a permanent narrowing ligature will be placed exactly below the left renal vein. Subsequently, the needle will be removed to restrict blood flow to 80-90%. […]
Thrombus size and thrombosis incidence on day 1 and day 2 following DVT surgery will be evaluated by ultrasonography. […]

[5] = system: Src family of protein tyrosine kinases; conditions: cited from earlier work
[6] = target: Src (Mus musculus, UniProt P05480); conditions: in vivo dose of 1.5 mg/kg; cited from earlier work
Chain of Src (P05480 whole entry): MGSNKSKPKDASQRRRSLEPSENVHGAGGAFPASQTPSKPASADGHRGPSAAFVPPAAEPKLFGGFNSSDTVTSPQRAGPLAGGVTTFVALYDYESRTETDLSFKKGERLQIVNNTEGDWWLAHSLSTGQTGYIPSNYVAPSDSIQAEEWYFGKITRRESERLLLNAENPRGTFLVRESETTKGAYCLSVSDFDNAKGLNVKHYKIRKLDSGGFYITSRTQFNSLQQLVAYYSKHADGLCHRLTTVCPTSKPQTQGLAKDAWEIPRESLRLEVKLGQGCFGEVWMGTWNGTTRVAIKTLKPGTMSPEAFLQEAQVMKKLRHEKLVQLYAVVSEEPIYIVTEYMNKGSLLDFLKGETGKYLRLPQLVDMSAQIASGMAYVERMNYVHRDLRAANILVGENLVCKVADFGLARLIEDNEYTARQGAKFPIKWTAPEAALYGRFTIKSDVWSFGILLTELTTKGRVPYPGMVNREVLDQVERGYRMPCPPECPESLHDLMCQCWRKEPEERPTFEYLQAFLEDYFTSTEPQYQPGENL

T1 sequence (Q13797 30-981 limits assumed): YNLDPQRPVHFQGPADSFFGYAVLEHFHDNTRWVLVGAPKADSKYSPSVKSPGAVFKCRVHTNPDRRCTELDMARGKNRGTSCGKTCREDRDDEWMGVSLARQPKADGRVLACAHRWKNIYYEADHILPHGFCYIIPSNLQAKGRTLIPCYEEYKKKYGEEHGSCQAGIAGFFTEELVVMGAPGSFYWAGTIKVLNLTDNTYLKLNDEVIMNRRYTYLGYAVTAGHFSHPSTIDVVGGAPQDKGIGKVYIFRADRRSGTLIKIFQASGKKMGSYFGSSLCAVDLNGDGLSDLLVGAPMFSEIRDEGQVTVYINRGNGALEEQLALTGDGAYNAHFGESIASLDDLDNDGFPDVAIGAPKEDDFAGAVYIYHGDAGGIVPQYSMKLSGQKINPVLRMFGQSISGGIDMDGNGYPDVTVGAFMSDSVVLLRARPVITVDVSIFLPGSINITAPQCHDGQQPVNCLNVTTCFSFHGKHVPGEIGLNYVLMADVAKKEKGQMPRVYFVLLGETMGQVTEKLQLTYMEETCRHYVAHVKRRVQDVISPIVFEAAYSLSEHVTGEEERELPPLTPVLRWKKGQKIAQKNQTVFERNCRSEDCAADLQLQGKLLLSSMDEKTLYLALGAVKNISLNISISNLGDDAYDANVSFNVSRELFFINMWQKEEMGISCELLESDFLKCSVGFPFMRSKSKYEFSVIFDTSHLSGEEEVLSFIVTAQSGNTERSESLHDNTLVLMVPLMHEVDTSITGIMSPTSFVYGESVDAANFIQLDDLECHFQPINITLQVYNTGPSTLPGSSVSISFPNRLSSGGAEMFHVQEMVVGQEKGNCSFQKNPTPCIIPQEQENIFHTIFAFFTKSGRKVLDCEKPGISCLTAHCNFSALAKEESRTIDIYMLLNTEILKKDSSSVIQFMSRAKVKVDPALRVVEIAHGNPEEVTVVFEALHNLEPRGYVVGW
T1 sequence (P05556 21-728 partner limits assumed): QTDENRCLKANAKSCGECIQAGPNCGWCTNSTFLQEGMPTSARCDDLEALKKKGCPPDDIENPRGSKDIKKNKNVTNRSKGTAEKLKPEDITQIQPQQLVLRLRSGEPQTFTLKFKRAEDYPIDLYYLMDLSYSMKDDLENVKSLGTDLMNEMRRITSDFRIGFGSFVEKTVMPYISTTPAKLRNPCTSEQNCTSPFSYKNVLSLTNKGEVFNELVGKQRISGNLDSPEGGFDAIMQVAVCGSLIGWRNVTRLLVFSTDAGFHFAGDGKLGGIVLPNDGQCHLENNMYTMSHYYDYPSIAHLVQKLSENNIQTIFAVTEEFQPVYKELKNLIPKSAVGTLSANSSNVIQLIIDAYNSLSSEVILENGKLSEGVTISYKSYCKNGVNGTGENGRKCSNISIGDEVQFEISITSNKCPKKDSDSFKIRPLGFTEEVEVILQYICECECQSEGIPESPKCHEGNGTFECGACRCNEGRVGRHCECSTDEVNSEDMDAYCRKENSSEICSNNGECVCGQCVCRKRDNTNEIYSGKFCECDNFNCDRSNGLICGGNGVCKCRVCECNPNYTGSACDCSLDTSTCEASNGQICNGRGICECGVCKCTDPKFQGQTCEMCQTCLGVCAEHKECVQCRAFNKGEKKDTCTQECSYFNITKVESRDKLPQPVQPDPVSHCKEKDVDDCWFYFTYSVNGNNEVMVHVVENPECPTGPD

Cc1c(F)cccc1NC(=O)Nc1ccc(Cl)c(S(=O)(=O)[C@H]2CCCNC2)c1O [Danirixin]
number of pneumonias ([1]; danirixin 50 mg): increased number of pneumonias | incidence of exacerbation ([1]; danirixin-treated groups, COPD patients): increased incidence of exacerbation

CCCNS(=O)(=O)Nc1ncnc(OCCOc2ncc(Br)cn2)c1-c1ccc(Br)cc1 [Macitentan]
binds to integrin α9 and inhibits its interactions with VCAM-1 [2]: inhibits its interactions with VCAM-1 | inhibition of ITGA9-VCAM1 binding ([2]; Macitentan at 1 μM, FIG. 2): significantly inhibited | thrombosis incidence [3]: significantly reduced | thrombus weight [3]: significantly reduced | DVT severity (IVC thrombus weight) [4]: significantly reduced

Cc1ccc(-c2nn(C(C)(C)C)c3ncnc(N)c23)cc1 [PP1]
IC50 [5]: 170 nM | inhibition of Src in vivo [6]: significant inhibition
